Common to all, as to assay type: cell-based
For data set [1], the target named is ATP-dependent translocase ABCB1 (Homo sapiens, UniProt P08183, Q1193A). Kind of data set: Negative allosteric modulator activity at human P-gp Q1193A mutant expressed in HEK293FT cells assessed as reversal of P-gp mediated PTX resistance by measuring sensitivity fold change incubated for 5 days by MTS assay. The note with it: 120 h, time 5 day.
Data set [2] has as its target ATP-dependent translocase ABCB1 (Homo sapiens, UniProt P08183, G1114A). Nature of the data set: Negative allosteric modulator activity at human P-gp G1114A mutant expressed in HEK293FT cells assessed as increase in intracellular doxorubicin accumulation using doxorubicin as substrate at 1 uM incubated for 150 mins by microplate reader assay (reference value: 98.8 +/- 1.4 %). The note with it: 2.5 h.

Data set [3] deals with ATP-dependent translocase ABCB1 (Homo sapiens, UniProt P08183, T1226Y). Nature of the data set: Negative allosteric modulator activity at human P-gp T1226Y mutant expressed in HEK293FT cells assessed as increase in intracellular doxorubicin accumulation using doxorubicin as substrate at 1 uM incubated for 150 mins by microplate reader assay (reference value: 67.4 +/- 2 %). The note with it: 2.5 h.

Data set [4] addresses ATP-dependent translocase ABCB1 (Homo sapiens, UniProt P08183, Q1193T). Nature of the data set: Negative allosteric modulator activity at human P-gp Q1193T mutant expressed in HEK293FT cells assessed as fold change in intracellular doxorubicin accumulation using doxorubicin as substrate at 1 uM incubated for 150 mins by microplate reader assay relative to DMSO. The note with it: 2.5 h.

SMILES strings stand for the structures.

Chain of ATP-dependent translocase ABCB1 (Homo sapiens, UniProt P08183, G1114A) (P08183 whole entry G1114A): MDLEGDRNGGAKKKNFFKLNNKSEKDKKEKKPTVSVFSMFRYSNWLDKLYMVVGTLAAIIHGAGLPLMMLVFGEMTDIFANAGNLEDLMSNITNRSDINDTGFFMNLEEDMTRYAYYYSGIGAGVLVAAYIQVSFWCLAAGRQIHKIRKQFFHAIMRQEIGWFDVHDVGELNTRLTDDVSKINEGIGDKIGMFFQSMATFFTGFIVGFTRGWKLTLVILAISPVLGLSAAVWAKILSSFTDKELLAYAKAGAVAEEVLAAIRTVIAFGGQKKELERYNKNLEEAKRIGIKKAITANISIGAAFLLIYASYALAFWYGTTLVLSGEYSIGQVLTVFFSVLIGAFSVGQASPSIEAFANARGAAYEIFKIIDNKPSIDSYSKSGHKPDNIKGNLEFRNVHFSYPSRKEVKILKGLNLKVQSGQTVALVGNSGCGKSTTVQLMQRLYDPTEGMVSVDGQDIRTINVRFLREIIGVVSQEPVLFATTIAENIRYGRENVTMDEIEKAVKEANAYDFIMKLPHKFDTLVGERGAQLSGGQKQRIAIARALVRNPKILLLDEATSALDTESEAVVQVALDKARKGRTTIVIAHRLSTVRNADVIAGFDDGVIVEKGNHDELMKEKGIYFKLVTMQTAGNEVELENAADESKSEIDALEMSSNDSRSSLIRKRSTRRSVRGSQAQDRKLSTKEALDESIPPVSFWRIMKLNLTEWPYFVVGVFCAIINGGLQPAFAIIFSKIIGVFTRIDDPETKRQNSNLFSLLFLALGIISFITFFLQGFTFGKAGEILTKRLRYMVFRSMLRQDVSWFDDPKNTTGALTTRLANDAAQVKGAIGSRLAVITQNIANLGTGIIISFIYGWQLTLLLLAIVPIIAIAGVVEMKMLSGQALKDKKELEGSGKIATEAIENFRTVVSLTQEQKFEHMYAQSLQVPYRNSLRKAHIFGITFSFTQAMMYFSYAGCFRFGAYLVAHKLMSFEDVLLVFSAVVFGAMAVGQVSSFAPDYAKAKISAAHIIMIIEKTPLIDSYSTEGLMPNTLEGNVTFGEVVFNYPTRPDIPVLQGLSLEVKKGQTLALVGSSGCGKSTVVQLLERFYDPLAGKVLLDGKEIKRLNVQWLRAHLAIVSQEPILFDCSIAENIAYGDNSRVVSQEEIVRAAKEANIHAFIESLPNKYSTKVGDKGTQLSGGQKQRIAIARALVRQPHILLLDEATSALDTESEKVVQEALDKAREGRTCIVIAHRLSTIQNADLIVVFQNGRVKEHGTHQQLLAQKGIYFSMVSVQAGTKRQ
Chain of ATP-dependent translocase ABCB1 (Homo sapiens, UniProt P08183, Q1193A) (P08183 whole entry Q1193A): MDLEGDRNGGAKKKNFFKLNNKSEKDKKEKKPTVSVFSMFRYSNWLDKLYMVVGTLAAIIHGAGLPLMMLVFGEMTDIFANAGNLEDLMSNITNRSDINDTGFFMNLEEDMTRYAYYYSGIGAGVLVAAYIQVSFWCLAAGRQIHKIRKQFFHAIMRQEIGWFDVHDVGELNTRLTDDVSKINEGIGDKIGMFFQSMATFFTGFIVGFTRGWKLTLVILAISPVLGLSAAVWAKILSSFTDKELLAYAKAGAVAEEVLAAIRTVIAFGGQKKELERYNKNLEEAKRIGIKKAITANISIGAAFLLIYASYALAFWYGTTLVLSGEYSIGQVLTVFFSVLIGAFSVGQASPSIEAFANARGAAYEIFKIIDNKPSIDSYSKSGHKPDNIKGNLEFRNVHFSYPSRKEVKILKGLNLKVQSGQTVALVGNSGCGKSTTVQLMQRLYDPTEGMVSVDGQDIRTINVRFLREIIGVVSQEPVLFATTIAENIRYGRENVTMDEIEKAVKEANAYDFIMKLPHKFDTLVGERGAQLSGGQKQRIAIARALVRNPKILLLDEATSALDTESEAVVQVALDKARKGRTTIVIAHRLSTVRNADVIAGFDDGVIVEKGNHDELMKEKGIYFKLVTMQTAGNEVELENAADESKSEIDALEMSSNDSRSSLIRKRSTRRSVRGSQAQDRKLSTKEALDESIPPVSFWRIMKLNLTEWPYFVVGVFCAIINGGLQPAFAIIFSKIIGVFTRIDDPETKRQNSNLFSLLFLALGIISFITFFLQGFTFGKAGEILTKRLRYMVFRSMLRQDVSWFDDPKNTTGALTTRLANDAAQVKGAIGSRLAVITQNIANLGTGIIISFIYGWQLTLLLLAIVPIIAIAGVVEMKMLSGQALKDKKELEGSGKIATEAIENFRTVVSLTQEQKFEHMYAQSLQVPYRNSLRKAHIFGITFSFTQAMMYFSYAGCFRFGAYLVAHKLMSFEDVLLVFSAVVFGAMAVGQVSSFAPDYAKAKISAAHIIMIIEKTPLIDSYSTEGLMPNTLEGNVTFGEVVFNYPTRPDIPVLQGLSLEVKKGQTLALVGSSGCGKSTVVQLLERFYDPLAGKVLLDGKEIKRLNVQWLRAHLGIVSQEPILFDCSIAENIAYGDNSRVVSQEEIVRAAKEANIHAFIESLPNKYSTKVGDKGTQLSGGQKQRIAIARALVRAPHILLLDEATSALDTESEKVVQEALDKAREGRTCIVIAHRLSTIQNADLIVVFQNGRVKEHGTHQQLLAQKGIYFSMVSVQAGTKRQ
Chain of ATP-dependent translocase ABCB1 (Homo sapiens, UniProt P08183, Q1193T) (P08183 whole entry Q1193T): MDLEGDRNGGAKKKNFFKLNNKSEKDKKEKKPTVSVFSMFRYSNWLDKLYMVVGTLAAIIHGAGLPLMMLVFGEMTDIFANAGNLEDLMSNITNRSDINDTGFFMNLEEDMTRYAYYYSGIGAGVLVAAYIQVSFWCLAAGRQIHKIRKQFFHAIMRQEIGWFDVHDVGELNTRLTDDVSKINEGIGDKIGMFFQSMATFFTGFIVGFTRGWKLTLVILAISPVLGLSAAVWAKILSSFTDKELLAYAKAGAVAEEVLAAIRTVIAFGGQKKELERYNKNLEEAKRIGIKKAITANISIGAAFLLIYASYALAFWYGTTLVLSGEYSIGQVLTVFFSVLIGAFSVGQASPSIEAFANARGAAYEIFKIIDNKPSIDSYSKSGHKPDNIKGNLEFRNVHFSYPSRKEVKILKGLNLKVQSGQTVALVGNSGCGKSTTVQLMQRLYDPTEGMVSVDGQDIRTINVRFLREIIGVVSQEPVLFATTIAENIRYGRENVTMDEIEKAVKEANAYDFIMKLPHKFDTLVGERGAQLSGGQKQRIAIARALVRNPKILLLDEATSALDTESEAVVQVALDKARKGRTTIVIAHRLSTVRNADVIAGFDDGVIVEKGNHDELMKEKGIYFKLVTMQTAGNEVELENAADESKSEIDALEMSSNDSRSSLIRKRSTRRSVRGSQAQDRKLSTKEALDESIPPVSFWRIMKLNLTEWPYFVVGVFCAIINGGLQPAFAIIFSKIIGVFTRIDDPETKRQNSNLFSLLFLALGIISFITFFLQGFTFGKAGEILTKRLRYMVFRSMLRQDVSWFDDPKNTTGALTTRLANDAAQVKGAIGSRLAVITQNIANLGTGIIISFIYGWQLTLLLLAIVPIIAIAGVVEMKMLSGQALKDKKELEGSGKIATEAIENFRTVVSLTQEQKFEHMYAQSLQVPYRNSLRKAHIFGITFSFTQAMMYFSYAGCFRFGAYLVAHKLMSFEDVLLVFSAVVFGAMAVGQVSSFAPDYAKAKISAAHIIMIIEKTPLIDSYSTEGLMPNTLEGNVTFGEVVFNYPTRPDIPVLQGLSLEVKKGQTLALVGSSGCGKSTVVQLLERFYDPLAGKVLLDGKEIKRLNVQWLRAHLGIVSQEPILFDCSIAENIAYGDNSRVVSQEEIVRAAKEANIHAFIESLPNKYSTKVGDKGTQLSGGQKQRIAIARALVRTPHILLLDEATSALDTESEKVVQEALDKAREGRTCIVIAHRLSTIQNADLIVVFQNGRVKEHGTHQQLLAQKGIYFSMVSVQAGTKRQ
Chain of ATP-dependent translocase ABCB1 (Homo sapiens, UniProt P08183, T1226Y) (P08183 whole entry T1226Y): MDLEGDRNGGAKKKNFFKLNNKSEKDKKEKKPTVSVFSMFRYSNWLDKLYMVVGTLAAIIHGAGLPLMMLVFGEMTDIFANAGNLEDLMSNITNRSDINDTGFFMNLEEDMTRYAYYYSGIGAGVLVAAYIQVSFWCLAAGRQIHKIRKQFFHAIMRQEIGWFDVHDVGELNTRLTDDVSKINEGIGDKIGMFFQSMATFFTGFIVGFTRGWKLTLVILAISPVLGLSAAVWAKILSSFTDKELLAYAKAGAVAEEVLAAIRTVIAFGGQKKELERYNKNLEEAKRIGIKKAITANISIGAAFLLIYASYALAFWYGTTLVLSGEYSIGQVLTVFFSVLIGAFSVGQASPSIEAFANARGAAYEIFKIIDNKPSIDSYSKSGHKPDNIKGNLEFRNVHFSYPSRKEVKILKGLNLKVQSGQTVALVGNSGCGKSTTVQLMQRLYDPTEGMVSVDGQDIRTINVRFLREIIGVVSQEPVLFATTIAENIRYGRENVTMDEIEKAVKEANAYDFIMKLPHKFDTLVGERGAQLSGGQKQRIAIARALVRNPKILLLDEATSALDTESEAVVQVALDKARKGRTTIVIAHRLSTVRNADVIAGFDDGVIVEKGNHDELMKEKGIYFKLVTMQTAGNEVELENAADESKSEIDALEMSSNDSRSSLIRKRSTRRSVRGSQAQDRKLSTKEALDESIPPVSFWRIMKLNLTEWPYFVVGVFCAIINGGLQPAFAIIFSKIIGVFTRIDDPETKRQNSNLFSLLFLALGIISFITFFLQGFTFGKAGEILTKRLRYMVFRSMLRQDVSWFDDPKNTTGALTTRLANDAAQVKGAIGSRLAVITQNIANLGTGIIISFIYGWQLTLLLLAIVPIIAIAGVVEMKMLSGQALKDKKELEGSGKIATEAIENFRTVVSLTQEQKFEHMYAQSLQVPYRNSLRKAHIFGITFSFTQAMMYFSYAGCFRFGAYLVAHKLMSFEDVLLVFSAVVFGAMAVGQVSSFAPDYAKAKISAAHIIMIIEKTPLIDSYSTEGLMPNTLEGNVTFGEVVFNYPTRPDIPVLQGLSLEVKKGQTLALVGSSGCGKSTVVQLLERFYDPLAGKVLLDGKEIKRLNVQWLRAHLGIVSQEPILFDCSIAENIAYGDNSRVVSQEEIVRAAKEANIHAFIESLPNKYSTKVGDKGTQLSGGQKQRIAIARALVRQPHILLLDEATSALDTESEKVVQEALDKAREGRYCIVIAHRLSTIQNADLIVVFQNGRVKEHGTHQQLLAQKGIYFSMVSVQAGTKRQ

For `O=c1cc(-c2ccc(OCCOCCNCc3ccccc3)cc2)oc2ccccc12`, the entries for the “fold change (FC)” value in data set [1] and in data set [4] were 4.3 and 1.3, respectively. The Activity in data set [2] is reported as 93.5%; in data set [3], 104%.

The record behind these values is ChEMBL document CHEMBL5338754, “Identification of Binding Sites in the Nucleotide-Binding Domain of P-Glycoprotein for a Potent and Nontoxic Modulator, the Amine-Containing Monomeric Flavonoid FM04” (J Med Chem, 2023).
